Source: the CheMixHub viscosity set
± gives the uncertainty stated by the source.

Experiment: xn = mol fraction of the nth substance listed
Settings: 101 kPa

CCNc1ccccc1 + COC(C)(C)C
viscosity [mPa·s]
Settings	293.15 K	298.15 K	303.15 K	308.15 K	313.15 K	318.15 K
x1 = 0.0583	0.428 ± 0.05	0.412 ± 0.05	0.395 ± 0.05	0.374 ± 0.05	0.351 ± 0.05	0.325 ± 0.05
x1 = 0.1047	0.465 ± 0.05	0.445 ± 0.05	0.425 ± 0.05	0.401 ± 0.05	0.376 ± 0.05	0.348 ± 0.05
x1 = 0.1493	0.503 ± 0.05	0.479 ± 0.05	0.455 ± 0.05	0.429 ± 0.05	0.402 ± 0.05	0.371 ± 0.05
x1 = 0.2021	0.552 ± 0.05	0.523 ± 0.05	0.495 ± 0.05	0.465 ± 0.05	0.434 ± 0.05	0.4 ± 0.05
x1 = 0.2544	0.605 ± 0.05	0.57 ± 0.05	0.537 ± 0.05	0.503 ± 0.05	0.469 ± 0.05	0.432 ± 0.05
x1 = 0.3064	0.663 ± 0.05	0.621 ± 0.05	0.583 ± 0.05	0.544 ± 0.05	0.506 ± 0.05	–
x1 = 0.3508	0.718 ± 0.05	0.668 ± 0.05	0.625 ± 0.05	0.582 ± 0.05	0.54 ± 0.05	–
x1 = 0.4031	0.787 ± 0.05	0.728 ± 0.05	0.678 ± 0.05	0.63 ± 0.05	0.584 ± 0.05	–
x1 = 0.45	0.855 ± 0.05	0.787 ± 0.05	0.73 ± 0.05	0.677 ± 0.05	0.625 ± 0.05	–
x1 = 0.5021	0.938 ± 0.05	0.858 ± 0.05	0.793 ± 0.05	0.733 ± 0.05	0.675 ± 0.05	–
x1 = 0.5506	1.022 ± 0.05	0.931 ± 0.05	0.857 ± 0.05	0.789 ± 0.05	0.725 ± 0.05	–
x1 = 0.6036	1.123 ± 0.051	1.017 ± 0.05	0.932 ± 0.05	0.856 ± 0.05	0.784 ± 0.05	–
x1 = 0.6519	1.225 ± 0.051	1.103 ± 0.051	1.006 ± 0.05	0.921 ± 0.05	0.843 ± 0.05	–
x1 = 0.701	1.337 ± 0.051	1.197 ± 0.051	1.089 ± 0.05	0.993 ± 0.05	0.907 ± 0.05	–
x1 = 0.7521	1.465 ± 0.051	1.304 ± 0.051	1.181 ± 0.051	1.074 ± 0.05	0.979 ± 0.05	–
x1 = 0.7985	1.592 ± 0.051	1.409 ± 0.051	1.271 ± 0.051	1.153 ± 0.051	1.049 ± 0.05	–
x1 = 0.8501	1.745 ± 0.051	1.536 ± 0.051	1.38 ± 0.051	1.247 ± 0.051	1.132 ± 0.051	–
x1 = 0.9006	1.909 ± 0.051	1.67 ± 0.051	1.493 ± 0.051	1.346 ± 0.051	1.218 ± 0.051	–
x1 = 0.949	2.081 ± 0.051	1.81 ± 0.051	1.612 ± 0.051	1.448 ± 0.051	1.306 ± 0.051	–
